Residue numbers refer to the chain shown, from its start.
How the values were obtained:
[1] = biological target: T1, HEK-293 cells expressing a G810R mutant RET Kif5b-RET fusion protein (Homo sapiens, UniProt P07949, G810R); assay: RET G810R Mutant Cell Assay (phospho-RET Tyr1062); type: cell-based; conditions: HEK-293 Kif5b-RET G810R, 1 hour incubation, phospho-RET normalized to GAPDH
T1 construct: KIF5B (N-terminal portion incl. coiled-coil); expressed in transfected cells; host or cells: HEK-293; the other entry of the earlier key: KIF5B (P33176, Kinesin-1 heavy chain)
T1 sequence (P07949 713-1063 G810R limits assumed): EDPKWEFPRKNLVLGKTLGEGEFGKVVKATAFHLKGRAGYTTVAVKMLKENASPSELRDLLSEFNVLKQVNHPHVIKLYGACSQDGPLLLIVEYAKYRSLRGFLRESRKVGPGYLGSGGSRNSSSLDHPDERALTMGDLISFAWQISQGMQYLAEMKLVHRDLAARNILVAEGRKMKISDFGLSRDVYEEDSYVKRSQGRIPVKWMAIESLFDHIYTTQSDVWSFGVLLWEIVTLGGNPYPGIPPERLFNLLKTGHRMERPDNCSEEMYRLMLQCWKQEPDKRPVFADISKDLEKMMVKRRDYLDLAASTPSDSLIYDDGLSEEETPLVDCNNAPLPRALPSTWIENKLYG
Method: (§1) The cellular potency of compounds inhibiting RET kinase were determined in HEK-293 cells expressing a G810R or G810S mutant RET Kif5b-RET fusion protein. Briefly, HEK-293 cells expressing a G810R or G810S mutant RET Kif5b-RET fusion protein were plated at 50K cells/well in 96 well poly-D-Lysine coated plates the day prior to the assay. The cells were incubated for 1 hour with test compound in DMEM (Dulbecco's Modified Eagle Medium) at a final DMSO concentration of 0.5%. […] After 1 hour the media was removed, the cells were fixed with 3.8% formaldehyde for 20 min, washed with PBS, and permeabilized for 10 min with 100% methanol. The plates were then washed with PBS-0.05% Tween20, and blocked with LI-COR Blocking solution (LI-COR Catalog No. 927-40000) for 1 hour. Plates were washed with PBS-0.05% Tween20, then incubated with anti-phospho-RET (Tyr1062) (Santa Cruz Catalog No. sc-20252-R) antibody and anti-GAPDH (Millipore Catalog No. MAB374) antibody for 2 hours. The plates were washed with PBS-0.05% Tween20, and incubated with anti-rabbit 680 (Molecular Probes Catalog No. A21109) and anti-mouse 800 (LI-COR Catalog No. 926-32210) secondary antibodies for 1 hour. All antibodies were diluted in LI-COR Block containing 0.05% Tween. The plates were washed with PBS-0.05% Tween20,100 μL PBS was added to each well, and the plates were read on a LI-COR Aerius fluorescent plate reader. The phospho-RET signal was normalized to the GAPDH signal. […] The POC values are fit to a 4 parameter logistic curve. The IC50 value is the point where the curve crosses 50 POC.

[2] = biological target: G810R mutant RET kinase (Homo sapiens, UniProt P07949, G810R); assay: biochemical;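 also: HTRF KinEASE-TK enzymatic assay with 1 nM recombinant RET G810R, 1 h at 22 °C, dual-wavelength ratiometric readout, 100% control without compound, 0% from pre-quenched reactions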
Chain of G810R mutant RET kinase (P07949 29-1114 G810R): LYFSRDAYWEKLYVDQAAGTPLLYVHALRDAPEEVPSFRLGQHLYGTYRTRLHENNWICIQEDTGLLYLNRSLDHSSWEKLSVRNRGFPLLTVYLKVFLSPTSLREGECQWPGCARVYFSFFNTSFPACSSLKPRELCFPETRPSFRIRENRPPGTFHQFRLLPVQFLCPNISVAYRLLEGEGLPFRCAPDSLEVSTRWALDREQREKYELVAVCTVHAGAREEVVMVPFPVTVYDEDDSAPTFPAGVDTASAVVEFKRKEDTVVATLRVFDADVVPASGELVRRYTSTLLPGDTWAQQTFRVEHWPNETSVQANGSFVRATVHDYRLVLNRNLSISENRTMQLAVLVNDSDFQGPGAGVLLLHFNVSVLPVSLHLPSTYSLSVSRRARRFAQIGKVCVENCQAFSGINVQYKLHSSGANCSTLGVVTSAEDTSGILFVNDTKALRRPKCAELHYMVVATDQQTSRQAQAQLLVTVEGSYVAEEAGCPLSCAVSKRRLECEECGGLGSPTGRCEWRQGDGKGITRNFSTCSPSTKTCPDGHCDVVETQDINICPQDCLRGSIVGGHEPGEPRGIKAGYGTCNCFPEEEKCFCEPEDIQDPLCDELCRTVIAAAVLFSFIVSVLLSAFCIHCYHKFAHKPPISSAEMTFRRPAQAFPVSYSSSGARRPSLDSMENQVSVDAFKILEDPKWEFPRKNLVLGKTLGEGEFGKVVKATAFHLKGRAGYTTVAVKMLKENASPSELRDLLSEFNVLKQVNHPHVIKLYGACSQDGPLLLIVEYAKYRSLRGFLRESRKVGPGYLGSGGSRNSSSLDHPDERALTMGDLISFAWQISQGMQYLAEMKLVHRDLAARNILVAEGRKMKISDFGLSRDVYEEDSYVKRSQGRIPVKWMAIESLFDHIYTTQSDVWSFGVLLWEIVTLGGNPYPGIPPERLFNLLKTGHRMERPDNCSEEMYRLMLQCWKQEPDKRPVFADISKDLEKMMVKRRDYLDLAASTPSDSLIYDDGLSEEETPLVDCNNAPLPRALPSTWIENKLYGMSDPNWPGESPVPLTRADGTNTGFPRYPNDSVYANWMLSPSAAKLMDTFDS

[3] = biological target: T2, HEK-293 cells expressing a Kif5b-RET fusion protein (Homo sapiens, UniProt P07949); assay: RET Cell Assay (phospho-RET Tyr1062); type: cell-based; conditions: HEK-293 Kif5b-RET, 1 hour incubation, phospho-RET normalized to GAPDH; read-out: KIF5B-RET pTYR1062 Cell IC50
T2 construct: KIF5B (N-terminal portion incl. coiled-coil); expressed in transfected cells; host or cells: HEK-293; the other entry of the earlier key: KIF5B (P33176, Kinesin-1 heavy chain)
T2 sequence (P07949 713-1063 limits assumed): T1 sequence (P07949 713-1063 G810R limits assumed) with R98G
Method: as §1, with “a” for “a G810R or G810S mutant RET”, “PBS is” for “PBS was”, “values were” for “values are”

[4] = biological target: G810S mutant RET kinase (Homo sapiens, UniProt P07949, G810S); assay: biochemical;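 also: HTRF KinEASE-TK kinase assay with recombinant enzyme, 1 h at 22 °C, dual-wavelength ratiometric read-out, percent of control (DMSO-only = 100, pre-quenched reaction = 0)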
Chain of G810S mutant RET kinase (P07949 29-1114 G810S): as the sequence (P07949 29-1114 G810R) above, with R782S counted along it

[5] = biological target: RET kinase Wild Type (Homo sapiens, UniProt P07949); assay: biochemical;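 also: HTRF kinase activity assay on RET enzyme, 1 h reaction at 22 °C, dual-wavelength readout as percent of control, DMSO-only wells as 100%, pre-quenched reactions as 0%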
Chain of RET kinase Wild Type (P07949 29-1114): as the sequence (P07949 29-1114 G810R) above, with R782G counted along it

[6] = biological target: RET kinase V804M (Homo sapiens, UniProt P07949, V804M); assay: RET Enzyme Assay (CisBio HTRF KinEASE-TK), V804M; type: biochemical; conditions: read-out: RET V804M Enz FRET IC50
Chain of RET kinase V804M (P07949 29-1114 V804M): as the sequence (P07949 29-1114 G810R) above, with V776M, R782G counted along it

Structure (SMILES) | IC50 [1] [nM] | IC50 [2] [nM] | IC50 [3] [nM] | IC50 [4] [nM] | IC50 [5] [nM] | IC50 [6] [nM]
CC(C)n1c2c(c3c(N)ncnc31)-c1cc3ccccc3n1C(=O)CC2 [Example 68, 1-amino-5-isopropyl-6,7-dihydropyrimido[5″,4″:4′,5′]pyrrolo[3′,2′:3,4]azepino[1,2-a]indol-8(5H)-one] | 4750 | 485 | 1780 | 1160 | 386 | –
CC(C)n1c2c(c3c(N)ncnc31)-c1ccc(Cl)cc1C(=O)NC2 [Example 45, 12-amino-3-chloro-8-isopropyl-7,8-dihydrobenzo[c]pyrimido[5′,4′:4,5]pyrrolo[3,2-e]azepin-5(6H)-one] | 814 | 275 | 344 | 557 | 194 | –
CC(C)n1c2c(c3c(N)ncnc31)-c1noc(C3CC3)c1C(=O)N(Cc1ccccc1)C2 [Example 7, 11-amino-5-benzyl-3-cyclopropyl-7-isopropyl-6,7-dihydroisoxazolo[4,3-c]pyrimido[5′,4′:4,5]pyrrolo[3,2-e]azepin-4(5H)-one] | 660 | 171 | 135 | 356 | 91 | 340
CC(C)n1c2c(c3c(N)ncnc31)-c1noc(C3CC3)c1C=CC2 [Example 30, 3-cyclopropyl-7-isopropyl-6,7-dihydroisoxazolo[4″,3″:6′,7′]cyclohepta[1′,2′:4,5]pyrrolo[2,3-d]pyrimidin-11-amine] | 2160 | 180 | 155 | 300 | 93 | 259
CC(C)n1c2c(c3c(N)ncnc31)-c1ccc(C3CC3)cc1C(=O)NC2 [Example 47, 12-amino-3-cyclopropyl-8-isopropyl-7,8-dihydrobenzo[c]pyrimido[5′,4′:4,5]pyrrolo[3,2-e]azepin-5(6H)-one] | 1950 | 269 | 134 | 303 | 112 | 9370
CC(C)n1c2c(c3c(N)ncnc31)-c1noc(C3CC3)c1CN(S(C)(=O)=O)C2 [Example 35, 3-cyclopropyl-7-isopropyl-5-(methylsulfonyl)-4,5,6,7-tetrahydroisoxazolo[4,3-c]pyrimido[5′,4′:4,5]pyrrolo[3,2-e]azepin-11-amine 2,2,2-trifluoroacetate] | 831 | 124 | 35 | 110 | 47 | 114
Cc1cc2n(n1)C(=O)NCc1c-2c2c(N)ncnc2n1C(C)C [Example 105, 12-amino-8-isopropyl-2-methyl-7,8-dihydropyrazolo[1,5-c]pyrimido[5′,4′:4,5]pyrrolo[3,2-e][1,3]diazepin-5(6H)-one 2,2,2-trifluoroacetate] | 15500 | 742 | 1360 | 2580 | 639 | –

Now those with a lower IC50 [1], led by results:

IC50 [1] [nM] | IC50 [2] [nM] | IC50 [3] [nM] | IC50 [4] [nM] | IC50 [5] [nM] | IC50 [6] [nM] | Structure (SMILES)
302 | 95 | 91 | 123 | 41 | 227 | CC(C)n1c2c(c3c(N)ncnc31)-c1noc(C3CC3)c1C(=O)N(CCc1ccccc1)C2 [Example 8, 11-amino-3-cyclopropyl-7-isopropyl-5-phenethyl-6,7-dihydroisoxazolo[4,3-c]pyrimido[5′,4′:4,5]pyrrolo[3,2-e]azepin-4(5H)-one]
485 | 102 | 64 | 94 | 16 | 34 | COC1CCc2c(c3c(N)ncnc3n2C(C)C)-c2noc(C3CC3)c21 (racemic) [Example 53, 3-cyclopropyl-7-isopropyl-4-methoxy-4,5,6,7-tetrahydroisoxazolo[4″,3″:6′,7′]cyclohepta[1′,2′:4,5]pyrrolo[2,3-d]pyrimidin-11-amine]
459 | 157 | 75 | 138 | 17 | 99 | CC(C)n1c2c(c3c(N)ncnc31)-c1noc(C3CC3)c1C(=O)N(CC1CC1)C2 [Example 5, 11-amino-3-cyclopropyl-5-(cyclopropylmethyl)-7-isopropyl-6,7-dihydroisoxazolo[4,3-c]pyrimido[5′,4′:4,5]pyrrolo[3,2-e]azepin-4(5H)-one]
181 | 70 | 40 | 87 | 25 | 92 | CC(C)n1c2c(c3c(N)ncnc31)-c1noc(C3CC3)c1C(=O)OC2 [Example 24, 11-amino-3-cyclopropyl-7-isopropyl-6,7-dihydro-4H-isoxazolo[3″,4″:5′,6′]oxepino[4′,3′:4,5]pyrrolo[2,3-d]pyrimidin-4-one]
496 | 102 | 65 | 75 | 31 | 323 | CC(C)n1c2c(c3c(N)ncnc31)-c1noc(C3CC3)c1S(=O)(=O)N(C)C2 [Example 22, 11-amino-3-cyclopropyl-7-isopropyl-5-methyl-6,7-dihydro-5H-isoxazolo[3,4-f]pyrimido[5′,4′:4,5]pyrrolo[2,3-d][1,2]thiazepine 4,4-dioxide]
394 | 47 | 103 | 65 | 34 | – | CC(C)n1c2c(c3c(N)ncnc31)-c1cc3ccccc3n1C(=O)NC2 [Example 69, 1-amino-5-isopropyl-6,7-dihydropyrimido[5″,4″:4′,5′]pyrrolo[2′,3′:5,6][1,3]diazepino[1,7-a]indol-8(5H)-one]
179 | 145 | 17 | 117 | 52 | 202 | CCN1Cc2c(c3c(N)ncnc3n2C(C)C)-c2noc(C3CC3)c2C1=O [Example 1, 11-amino-3-cyclopropyl-5-ethyl-7-isopropyl-6,7-dihydroisoxazolo[4,3-c]pyrimido[5′,4′:4,5]pyrrolo[3,2-e]azepin-4(5H)-one]

— patent US11964988B2, “Fused heterocyclic compounds as RET kinase inhibitors” (ARRAY BIOPHARMA INC., priority 2018, dated 2024)
